US20260150841A1, “PYRIDINE COMPOUNDS FOR COMBATTING DIHYDROOROTATE-DEHYDROGENASE INHIBITOR-RESISTANT PHYTOPATHOGENIC FUNGI” (priority 2022, published 2026)
Values after ≈ are worked out from the molar mass of the structure shown. Where two headings read alike, the source gives them in different places.

Tests used:
Format in all cases: cell-based
[1] = tested on: Botrytis cinerea (sensitive, wild-type); test: Activity against Botrytis cinerea in the microtiter test, wild type; conditions: turbidity at 620 nm after 7 days; for IC50: 168 h, read-out: Absolute IC50, wild type
Procedure: (§1) The active substances were formulated separately as a stock solution in dimethyl sulfoxide (DMSO) at a concentration of 10 000 ppm.
(§2) Fungal strains used: • a) Botrytis cinerea (sensitive, wild-type) • b) Various mutants of Botrytis cinerea
(§3) The spores of Botrytis cinerea were harvested with a cotton swab from an Oatmeal agar plate (50 g/l Oatmealagar (Sigma, Art.O-3506), 15 g/l agar, (Difco) and this is dipped in 3 ml of double concentrated DOB-medium (3.4 g/l YNB (Becton Dickinson), 10 g/l Ammoniumsulfat, 40 g/l Glucose, adjusted to pH 7) and the spore suspension is adjusted to a spore density of 3.2×10^4 spores/ml. The compound solutions were diluted from stock solution in (dimethylsulfoxide) DMSO in several steps with sterile deionized water before use. High test concentrations were 50 mg/L (ppm) or 31 mg/L (ppm). Compound solutions were transferred into empty microplates and filled up with an equal amount of spore suspension.
(§4) The antifungal activity was determined by measuring the turbidity of a culture in 96-well microplates in the presence of test compounds after 7 days incubation at 620 nm. A blank value for each concentration (growth media+compound, without spores) are subtracted from the spore suspension. The relative antifungal activity was calculated by comparing the effect of the test compounds with the effect of a DMSO control The results are shown in Table IV (for compounds of general formula I.A), VI (for compounds of general formula I.B), and VIII (for compounds of general formula I.C).
(§5) The absolute IC50-values (concentration of test compound resulting in 50% inhibition of fungal growth) were calculated from the resulting dose-response for each compound and strain.

[2] = tested on: Botrytis cinerea mutant H108P; test: Activity against Botrytis cinerea in the microtiter test, mutant H108P; conditions: for IC50: Botrytis cinerea, MUTANTH108P, 168 h, read-out: Absolute IC50, H108P, Botrytis cinerea mutant H108P
Description: as §1
(§6) Spontaneous mutants were selected by plating out B. cinerea spores (in the range of 10^7-10^8) on DOB agar plates (3.4 g/l YNB (Becton Dickinson), 10 g/l Ammoniumsulfat, 40 g/l Glucose, 20 g/l Agar), amended with different lethal concentrations of active ingredient. After 7-14 days growing colonies were transferred to DOB agar plates, amended with the same lethal concentrations of active ingredient and then further propagated on Oatmeal agar medium (50 g/l Oatmeal agar (Sigma), 15 g/l Agar (Difco) for sensitivity testing.
as §2, §3, §4
(§7) A compound showing an IC50 (MUT) above the IC50 (WT) and showing an IC50 (MUT) to IC50 (WT) ratio being in a range above 100 is considered unsuitable (“I”) as DHODH inhibitor.
as §5

[3] = tested on: Botrytis cinerea mutant G111E; test: Activity against Botrytis cinerea in the microtiter test, mutant G111E; conditions: for IC50: Botrytis cinerea, MUTANTG111E, 168 h, read-out: Absolute IC50, G111E, Botrytis cinerea mutant G111E
Description: as §1, §6, §2, §3, §4, §7, §5

[4] = tested on: Botrytis cinerea mutant G111V; test: Activity against Botrytis cinerea in the microtiter test, mutant G111V; conditions: for IC50: Botrytis cinerea, MUTANTG111V, 168 h, read-out: Absolute IC50, G111V, Botrytis cinerea mutant G111V
Description: as §1, §6, §2, §3, §4, §7, §5

[5] = tested on: Botrytis cinerea mutant V195F; test: Activity against Botrytis cinerea in the microtiter test, mutant V195F; conditions: for IC50: Botrytis cinerea, MUTANTV195F, 168 h, read-out: Absolute IC50, V195F, Botrytis cinerea mutant V195F
Description: as §1, §6, §2, §3, §4, §7, §5

[6] = tested on: Botrytis cinerea mutant Y208H; test: Activity against Botrytis cinerea in the microtiter test, mutant Y208H; conditions: for IC50: Botrytis cinerea, MUTANTY208H, 168 h, read-out: Absolute IC50, Y208H, Botrytis cinerea mutant Y208H
Description: as §1, §6, §2, §3, §4, §7, §5

[7] = turbidity at 620 nm after 7 days

4-[6-(difluoromethyl)-5-methyl-3-pyridyl]-8-fluoro-2,2-dimethyl-1H-quinazoline [compound 44]
Absolute IC50, wild type [1]: 0.01 ppm
Absolute IC50, H108P ([2]; Botrytis cinerea mutant H108P, turbidity at 620 nm after 7 days): 0.50 ppm
Absolute IC50, G111E ([3]; Botrytis cinerea mutant G111E, turbidity at 620 nm after 7 days): 0.08 ppm
Absolute IC50, G111V ([4]; Botrytis cinerea mutant G111V, turbidity at 620 nm after 7 days): 0.73 ppm
Absolute IC50, V195F ([5]; Botrytis cinerea mutant V195F, turbidity at 620 nm after 7 days): 0.03 ppm
Absolute IC50, Y208H ([6]; Botrytis cinerea mutant Y208H, turbidity at 620 nm after 7 days): 1.64 ppm

Cc1cc(C2=NC3(CCC3)Oc3c2cccc3C(C)(C)C)cnc1C [Ex-14]
Relative antifungal activity expressed as IC50, G111E ([3]; {}): AA AA AA AA AA
Relative antifungal activity expressed as IC50, G111V ([4]; {}): AA AA AA AA AA
Relative antifungal activity expressed as IC50, V195F ([5]; {}): AA AA AA AA AA
Relative antifungal activity expressed as IC50, Y208H ([6]; {}): AA AA AA AA AA

Cc1cc(C2=NC(C)(C)Oc3c2cccc3C(C)(C)C)cnc1C [Ex-15]
Relative antifungal activity expressed as IC50, G111V ([4]; {}): AA AA AA
Relative antifungal activity expressed as IC50, V195F ([5]; {}): AA AA AA

Cc1cc(C2=NC(C(C)(C)C)Oc3ccccc32)cnc1C (stereo not drawn) [Ex-18]
Relative antifungal activity expressed as IC50, G111E ([3]; {}): AA AA AA AA
Relative antifungal activity expressed as IC50, G111V ([4]; {}): AA AA AA AA
Relative antifungal activity expressed as IC50, V195F ([5]; {}): AA AA AA AA

Cc1cc(C2=NC3(CCCC3)Oc3ccccc32)cnc1C(F)F [Ex-24]
IC50 [1]: 0.35 µg/mL (≈ 1.07 µM)
IC50 [2, 7]: 0.98 µg/mL (≈ 2.98 µM)
IC50 [3, 7]: 15.3 µg/mL (≈ 46.6 µM)
IC50 [4, 7]: 1.31 µg/mL (≈ 3.99 µM)
IC50 [5, 7]: 0.69 µg/mL (≈ 2.1 µM)

Cc1cc(C2=NC3(CCC3)Oc3ccccc32)cnc1C(F)F [Ex-25, 4-[6-(difluoromethyl)-5-methyl-3-pyridyl]spiro[1,3-benzoxazine-2,1′-cyclobutane]]
IC50 [1]: 0.05 µg/mL (≈ 0.159 µM)
IC50 [2, 7]: 0.02 µg/mL (≈ 0.0636 µM)
IC50 [4, 7]: 0.03 µg/mL (≈ 0.0954 µM)
IC50 [5, 7]: 0.08 µg/mL (≈ 0.255 µM)
IC50 [6, 7]: 0.28 µg/mL (≈ 0.891 µM)

Cc1cc(C2=NC3(COC3)Oc3ccccc32)cnc1C [Ex-26]
Relative antifungal activity expressed as IC50, G111E ([3]; {}): AA AA AA AA
Relative antifungal activity expressed as IC50, G111V ([4]; {}): AA AA AA AA
Relative antifungal activity expressed as IC50, V195F ([5]; {}): AA AA AA AA

Cc1cc(C2=NC3(CCC3)Oc3c(F)cccc32)cnc1C [Ex-29]
IC50 ([1]; Botrytis cinerea): 0.02 µg/mL (≈ 0.0675 µM)
IC50 [2, 7]: 0.02 µg/mL (≈ 0.0675 µM)
IC50 [3, 7]: 2.34 µg/mL (≈ 7.9 µM)
IC50 [4, 7]: 0.04 µg/mL (≈ 0.135 µM)
IC50 [5, 7]: 0.02 µg/mL (≈ 0.0675 µM)
IC50 [6, 7]: 0.93 µg/mL (≈ 3.14 µM)

Cc1cc(C2=NC3(CCC3)Oc3ccccc32)cnc1C [Ex-32]
IC50 ([1]; Botrytis cinerea): 0.12 µg/mL (≈ 0.431 µM)
Absolute IC50, H108P ([2]; {}): 0.07 ppm
Absolute IC50, G111E ([3]; {}): 2.34 ppm
Absolute IC50, G111V ([4]; {}): 2.85 ppm
Absolute IC50, V195F ([5]; {}): 0.13 ppm
IC50 [6, 7]: 1.23 µg/mL (≈ 4.42 µM)

COc1ccc2c(c1)OC1(CCC1)N=C2c1cnc(C(F)F)c(C)c1 [Ex-37]
IC50 [1]: 0.03 µg/mL (≈ 0.0871 µM)
IC50 [2, 7]: 0.06 µg/mL (≈ 0.174 µM)
IC50 [3, 7]: 0.54 µg/mL (≈ 1.57 µM)
IC50 [4, 7]: 0.09 µg/mL (≈ 0.261 µM)
IC50 [5, 7]: 0.11 µg/mL (≈ 0.319 µM)

Cc1cc(C2=NC(C)(C)Nc3ccccc32)cnc1C [compound 39]
Relative antifungal activity expressed as IC50, G111E ([3]; {}): AA AA AA AA
Relative antifungal activity expressed as IC50, G111V ([4]; {}): AA AA AA AA
Relative antifungal activity expressed as IC50, V195F ([5]; {}): AA AA AA AA

Cc1ccc(S(=O)(=O)N2c3ccccc3C(c3cnc(C)c(C)c3)=NC2(C)C)cc1 [compound 42]
Relative antifungal activity expressed as IC50, G111E ([3]; {}): AA AA AA AA
Relative antifungal activity expressed as IC50, G111V ([4]; {}): AA AA AA AA
Relative antifungal activity expressed as IC50, V195F ([5]; {}): AA AA AA AA

CCN1c2c(F)cccc2C(c2cnc(C(F)F)c(C)c2)=NC1(C)C [compound 45]
IC50 [1]: 0.01 µg/mL (≈ 0.0288 µM)
IC50 [2, 7]: 0.4 µg/mL (≈ 1.15 µM)
IC50 [3, 7]: 0.57 µg/mL (≈ 1.64 µM)
IC50 [4, 7]: 0.96 µg/mL (≈ 2.76 µM)
IC50 [5, 7]: 0.02 µg/mL (≈ 0.0576 µM)
IC50 [6, 7]: 0.27 µg/mL (≈ 0.777 µM)

Cc1cc(C2=NCC(C)(C)Oc3ccccc32)cnc1C [compound 47]
IC50 ([1]; Botrytis cinerea): 0.04 µg/mL (≈ 0.143 µM)
IC50 [2, 7]: 0.83 µg/mL (≈ 2.96 µM)
IC50 [3, 7]: 2.47 µg/mL (≈ 8.81 µM)
IC50 [4, 7]: 0.55 µg/mL (≈ 1.96 µM)
IC50 [5, 7]: 0.02 µg/mL (≈ 0.0713 µM)
IC50 [6, 7]: 1.9 µg/mL (≈ 6.78 µM)

Cc1cc(C2=NC(C)(C)C(C)(C)Oc3ccccc32)cnc1C(F)F [compound 49]
IC50 [1]: 0.01 µg/mL (≈ 0.029 µM)
IC50 [2, 7]: 0.32 µg/mL (≈ 0.929 µM)
IC50 [3, 7]: 2.35 µg/mL (≈ 6.82 µM)
IC50 [4, 7]: 0.7 µg/mL (≈ 2.03 µM)
IC50 [5, 7]: 0.01 µg/mL (≈ 0.029 µM)
IC50 [6, 7]: 0.97 µg/mL (≈ 2.82 µM)

Cc1cc(C2=NC(C)(C)COc3ccccc32)cnc1C [compound 51]
Relative antifungal activity expressed as IC50, G111V ([4]; {}): AA AA AA
Relative antifungal activity expressed as IC50, V195F ([5]; {}): AA AA AA

CC(C)(C)C1(C)N=C(c2cnc3c(F)cccc3c2)c2ccccc2O1 (stereo not drawn) [drawing 117, reference compound]
IC50 [1]: 0.07 µg/mL (≈ 0.201 µM)
IC50 [5, 7]: > 31 µg/mL

Cc1cc(C2=NC3(CCC3)Oc3ccccc32)cnc1C [drawing 125, reference compound]
Absolute IC50, wild type [1]: 0.11 ppm
Absolute IC50, H108P ([2]; {}): 0.25 ppm
Absolute IC50, G111E ([3]; {}): 10.94 ppm
Absolute IC50, G111V ([4]; {}): 0.25 ppm
Absolute IC50, V195F ([5]; {}): 2.99 ppm
Absolute IC50, Y208H ([6]; {}): 1.43 ppm

CC1(c2ccccc2)N=C(c2cnc3c(F)cccc3c2)c2cccc(F)c2O1 (stereo not drawn) [drawing 127, reference compound]
IC50 ([1]; Botrytis cinerea): 0.04 µg/mL (≈ 0.104 µM)
IC50 [5, 7]: 15.5 µg/mL (≈ 40.2 µM)

COc1ccc2c(c1)OC(C)(C)N=C2c1cnc2c(F)cccc2c1 [drawing 129, reference compound]
IC50 ([1]; Botrytis cinerea): 0.01 µg/mL (≈ 0.0297 µM)
IC50 [5, 7]: 5.28 µg/mL (≈ 15.7 µM)

CCN1c2c(F)cccc2C(c2cnc3c(F)cccc3c2)=NC1(C)C [drawing 141, reference compound]
IC50 [1]: 0.02 µg/mL (≈ 0.0569 µM)
IC50 [5, 7]: > 31 µg/mL

CC1(C)N=C(c2cnc3c(F)cccc3c2)c2ccccc2OC1(C)C [drawing 163, reference compound]
IC50 ([1]; Botrytis cinerea): 0.001 µg/mL (≈ 0.00287 µM)
IC50 [5, 7]: 2.84 µg/mL (≈ 8.15 µM)

Fc1cccc2cc(C3=NC4(CCCC4)Oc4ccccc43)cnc12 [reference compound]
IC50 ([1]; Botrytis cinerea): 0.05 µg/mL (≈ 0.15 µM)
IC50 [5, 7]: 10.9 µg/mL (≈ 32.8 µM)

Fc1cccc2c1OC1(CCC1)N=C2c1cnc2ccccc2c1 [reference compound]
IC50 [1]: 0.03 µg/mL (≈ 0.0942 µM)
IC50 [2, 7]: 0.11 µg/mL (≈ 0.346 µM)
IC50 [3, 7]: 9.48 µg/mL (≈ 29.8 µM)
IC50 [4, 7]: 0.14 µg/mL (≈ 0.44 µM)
IC50 [5, 7]: 24.1 µg/mL (≈ 75.9 µM)
IC50 [6, 7]: 1.59 µg/mL (≈ 4.99 µM)

CC1(C)N=C(c2cnc3c(F)cccc3c2)c2cccc(F)c2N1 [reference compound]
IC50 ([1]; Botrytis cinerea): 0.005 µg/mL (≈ 0.0155 µM)
IC50 [5, 7]: 4.42 µg/mL (≈ 13.7 µM)

CC1(C)CN=C(c2cnc3ccccc3c2)c2ccccc2O1 [reference compound]
IC50 ([1]; Botrytis cinerea): 0.001 µg/mL (≈ 0.00331 µM)
IC50 [5, 7]: 19.5 µg/mL (≈ 64.6 µM)
